Laboratory results from patent US10703756B2, “Pyrrolo[2,3-D]pyrimidinyl, pyrrolo[2,3-B]pyrazinyl, pyrrolo[2,3-B]pyridinyl acrylamides and epoxides thereof” (Pfizer Inc., priority 2015, dated 2020).
Read-outs that look alike come from different tables or passages of the source.

Tests used:
JAK3 enzyme [1] = target: T1, JAK3 enzyme (Homo sapiens, UniProt P52333); assay: JAK Caliper Enzyme Assay at 1 mM ATP; format: biochemical
T1 sequence (P52333 1-1124): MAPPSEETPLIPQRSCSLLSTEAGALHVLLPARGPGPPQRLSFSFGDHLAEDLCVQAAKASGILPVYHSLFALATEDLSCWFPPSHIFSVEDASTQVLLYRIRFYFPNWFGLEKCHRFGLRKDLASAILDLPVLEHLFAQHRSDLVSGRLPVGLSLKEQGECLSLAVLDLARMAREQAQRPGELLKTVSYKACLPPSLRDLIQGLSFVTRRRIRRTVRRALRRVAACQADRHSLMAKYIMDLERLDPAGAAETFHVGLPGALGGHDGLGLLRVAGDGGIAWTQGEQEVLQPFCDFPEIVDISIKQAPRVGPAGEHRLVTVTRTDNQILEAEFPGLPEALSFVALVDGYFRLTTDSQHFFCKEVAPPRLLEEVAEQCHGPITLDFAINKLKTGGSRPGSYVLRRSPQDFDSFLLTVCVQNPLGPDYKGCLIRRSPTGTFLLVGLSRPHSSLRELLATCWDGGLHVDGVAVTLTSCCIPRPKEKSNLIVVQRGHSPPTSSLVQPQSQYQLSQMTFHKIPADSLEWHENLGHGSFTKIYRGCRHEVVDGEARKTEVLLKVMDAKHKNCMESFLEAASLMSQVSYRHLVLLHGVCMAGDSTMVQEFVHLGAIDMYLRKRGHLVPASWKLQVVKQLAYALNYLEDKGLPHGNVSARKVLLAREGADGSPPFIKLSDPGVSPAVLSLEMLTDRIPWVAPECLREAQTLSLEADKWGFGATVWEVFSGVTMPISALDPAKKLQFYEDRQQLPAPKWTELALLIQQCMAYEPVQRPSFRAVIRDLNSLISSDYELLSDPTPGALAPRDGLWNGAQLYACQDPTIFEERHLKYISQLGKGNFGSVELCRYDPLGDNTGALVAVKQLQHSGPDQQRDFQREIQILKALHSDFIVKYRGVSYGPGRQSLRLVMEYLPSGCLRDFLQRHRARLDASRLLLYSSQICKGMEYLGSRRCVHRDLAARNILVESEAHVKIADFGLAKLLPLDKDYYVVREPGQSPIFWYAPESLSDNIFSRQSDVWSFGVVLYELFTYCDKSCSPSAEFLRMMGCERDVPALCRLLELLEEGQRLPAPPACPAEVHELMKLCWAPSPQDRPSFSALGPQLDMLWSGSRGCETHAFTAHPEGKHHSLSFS
How it was run: (§1)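 11-pt ½-log cpd titration in DMSO (top 600 μM, pre-assay); enzyme conc/incubation adjusted per prep → 20-30% peptide phosphorylation; phospho vs non-phospho peptide read by chip-based electrophoretic separation.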

[2] = test system: IL-15 induced P-STAT5 in human PBMC; assay: PBMC IL-15 Induced P-STAT5; format: cell-based
How it was run: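 Thawed human PBMC, rested in human plasma, were preincubated 15 min at 37 °C with compound (0.2% DMSO), then stimulated 15 min with IL-15 at 41 ng/mL final. After paraformaldehyde fixation and methanol permeabilisation, Alexa Fluor 647 anti-STAT5 staining overnight at 4 °C was analysed by flow cytometry on total lymphocytes.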

[3] = Stability of JAK3 Covalent Inhibitors in Human Whole Blood; format: in vitro ADME; details: 1 μM test compound, 37° C., 180 min incubation; for half-life at 1 μM: both sexes, read-out: Human blood stability t1/2
Procedure: Stability of JAK3 Covalent Inhibitors in Rat and Human Whole Blood
Rat blood was collected from 3 male Sprague-Dawley rats (200-250 g, Charles River Laboratories) and pooled for each study. Human blood was collected from healthy subjects at the Occupational Health & Wellness Center at Pfizer, Groton, Conn. and pooled for each study. Both rat and human blood was collected freshly into K2-EDTA tubes and kept on ice. An aliquot of the blood was transferred to microtubes and pre-warmed for 10 min at 37° C. using a heat block. The test compound was then added (1 μM final concentration) and the incubation was continued for 180 min at 37° C. in duplicates. An aliquot of the incubation mixture was removed at designated time points during the course of the incubation, mixed with an aliquot of acetonitrile containing an internal standard, vortexed and centrifuged. The resulting supernatants were removed and subjected to LC-MS/MS analyses to determine parent compound concentrations. Peak area ratios of the parent compound vs the internal standard were used to determine the % of parent compound remaining vs incubation time.

JAK3 enzyme [4] = target: T1, JAK3 enzyme; assay: JAK Caliper Enzyme Assay at 4 μM ATP; format: biochemical
How it was run: as §1

[5] = human PBMC, IL-15 final 41 ng/mL, read-out: PBMC IL15_pSTAT5_IC50
[6] = Homo sapiens, PBMC, read-out: PBMC IL15_pSTAT5_IC50 (nM)

IC50 (JAK3 enzyme [1]) [nM] | half-life at 1 μM [3] [h] | IC50 (JAK3 enzyme [4]) [nM] | SMILES | IC50 [2, 5] [nM] | Human blood stability t1/2 [3] [h] | IC50 [2, 6] [nM]
105 | > 6 | 0.501 | C=CC(=O)N1CCCC(Nc2cnc3[nH]cc(C(=O)NCC)c3n2)C1 (racemic) [Example 34, Racemic-2-[(1-acryloylpiperidin-3-yl)amino]-N-ethyl-5H-pyrrolo[2,3-b]pyrazine-7-carboxamide] | 580 |  | 
50 | 3.73 | 0.258 | C=CC(=O)N1CC[C@@H](Nc2cnc3[nH]cc(C(=O)NCC)c3n2)[C@H](C)C1 (racemic) [Example 43, Trans-racemic-2-{[(3R,4R)-1-acryloyl-3-methylpiperidin-4-yl]amino}-N-ethyl-5H-pyrrolo[2,3-b]pyrazine-7-carboxamide] | 411 |  | 
212 | 2.65 | 2.93 | C=CC(=O)N1CCCC(Oc2cnc3[nH]cc(C(=O)N[C@@H](C)COC)c3n2)C1 (mixture of isomers) [Example 51, Racemic-2-[(1-acryloylpiperidin-3-yl)oxy]-N-[(2S)-1-methoxypropan-2-yl]-5H-pyrrolo[2,3-b]pyrazine-7-carboxamide] | 999 |  | 
53 | > 6 | 1.02 | C=CC(=O)N1C[C@@H](Nc2cnc3[nH]cc(C(=O)N[C@@H](C)COC)c3n2)CC[C@H]1C (racemic) [Example 65, Cis-racemic-2-{[1-acryloyl-6-methylpiperidin-3-yl]amino}-N-[(2S)-1-methoxypropan-2-yl]-5H-pyrrolo[2,3-b]pyrazine-7-carboxamide] | 585 |  | 
247 | > 6 | 2.17 | C=CC(=O)N1C[C@@H](Nc2cnc3[nH]cc(C(=O)N[C@H](C)COC)c3n2)CC[C@H]1C (racemic) [Example 68, Cis-racemic-2-{[1-acryloyl-6-methylpiperidin-3-yl]amino}-N-[(2R)-1-methoxypropan-2-yl]-5H-pyrrolo[2,3-b]pyrazine-7-carboxamide] | 4570 |  | 
177 | > 6 | 0.995 | C=CC(=O)N1C[C@@H](Nc2cnc3[nH]cc(C(=O)NCC)c3n2)CC[C@H]1C (racemic) [Example 74, Cis-racemic-2-{[1-acryloyl-6-methylpiperidin-3-yl]amino}-N-ethyl-5H-pyrrolo[2,3-b]pyrazine-7-carboxamide] | 1180 |  | 
160 | 4.8 | 1.32 | C=CC(=O)N1C[C@@H](Oc2cnc3[nH]cc(C(=O)N[C@@H](C)COC)c3n2)CC[C@H]1C (racemic) [Example 80, Cis-racemic-2-{[1-acryloyl-6-methylpiperidin-3-yl]oxy}-N-[(2S)-1-methoxypropan-2-yl]-5H-pyrrolo[2,3-b]pyrazine-7-carboxamide] | 829 |  | 
111 | > 6 | 0.773 | C=CC(=O)N1CCN(c2cnc3[nH]cc(C(=O)NC(C)COC)c3n2)CC1(C)C (racemic) [Example 148, Racemic-2-(4-acryloyl-3,3-dimethylpiperazin-1-yl)-N-(1-methoxypropan-2-yl)-5H-pyrrolo[2,3-b]pyrazine-7-carboxamide] | 312 |  | 
138 | > 6 | 0.848 | C=CC(=O)N1CC[C@H](Nc2cnc3[nH]cc(C(=O)NCC)c3n2)[C@@H](O)C1 (single isomer, unassigned) [Example 32] | 9100 |  | 
34 | 3.47 | 0.23 | C=CC(=O)N1CC[C@@H](Nc2cnc3[nH]cc(C(=O)NCC)c3n2)[C@H](O)C1 (single isomer, unassigned) [Example 33] | 2810 |  | 
202 | > 6 | 1.01 | C=CC(=O)N1CC[C@H](Nc2cnc3[nH]cc(C(=O)NCC)c3n2)[C@H](C)C1 (single isomer, unassigned) [Example 39] | 2380 |  | 
57 | 3.37 | 0.39 | C=CC(=O)N1CC[C@H](Nc2cnc3[nH]cc(C(=O)NCC)c3n2)[C@@H](C)C1 (single isomer, unassigned) [Example 45] | 460 |  | 

The next lines start with the compound.

SMILES | IC50 (JAK3 enzyme [1]) [nM] | half-life at 1 μM [3] [h] | IC50 (JAK3 enzyme [4]) [nM] | IC50 [2, 5] [nM] | Human blood stability t1/2 [3] [h] | IC50 [2, 6] [nM]
C=CC(=O)N1CC[C@H](Nc2cnc3[nH]cc(C(=O)NCC)c3n2)[C@@H](O)C1 (racemic) [Example 31, Trans-racemic-2-{[(3S,4S)-1-acryloyl-3-hydroxypiperidin-4-yl]amino}-N-ethyl-5H-pyrrolo[2,3-b]pyrazine-7-carboxamide] | 47 | 4.9 | 0.211 | 3870 |  | 
C=CC(=O)N1CC(Nc2ncnc3[nH]ccc23)CCC1[C@@H](C)O (mixture of isomers) [Example 109] | 155 |  | 0.713 | 320 | 2.20175 | 
C=CC(=O)N1CC[C@H](Nc2cnc3[nH]cc(C(=O)N[C@@H](C)COC)c3n2)C[C@@H]1C (racemic) [Example 353, 2-(((2S,4S)-1-Acryloyl-2-methylpiperidin-4-yl)amino)-N—((S)-1-methoxypropan-2-yl)-5H-pyrrolo[2,3-b]pyrazine-7-carboxamide] | 123 | > 6 | 1.48 | 2200 |  | 
C=CC(=O)N1CC[C@H](Nc2cnc3[nH]cc(C(=O)N[C@@H](C)COC)c3n2)C[C@@H]1C (relative stereo) [Example 55, 2-{[(2S,4S)-1-acryloyl-2-methylpiperidin-4-yl]amino}-N-[(2S)-1-methoxypropan-2-yl]-5H-pyrrolo[2,3-b]pyrazine-7-carboxamide] | 192 | > 6 | 2.21 |  |  | 2260
C=CC(=O)N1CCC[C@H]1COc1cnc2[nH]cc(C(=O)N[C@@H](C)COC)c2n1 (single isomer, unassigned) [Example 8] | 46 | > 6 | 0.355 | 133 |  | 
C=CC(=O)N1CC[C@@H](CNc2cnc3[nH]cc(C(=O)N[C@@H](C)COC)c3n2)C1 (single isomer, unassigned) [Example 17] | 37 | 3.16 | 0.319 | 2560 |  | 
C=CC(=O)N1CC[C@H](CNc2cnc3[nH]cc(C(=O)N[C@@H](C)COC)c3n2)C1 (single isomer, unassigned) [Example 18] | 96 | > 6 | 0.491 | 5990 |  | 
C=CC(=O)N1CC[C@H](Nc2cnc3[nH]cc(C(=O)NCC)c3n2)[C@@H](OC)C1 (single isomer, unassigned) [Example 27] | 19 | > 6 | 0.468 | 382 |  | 
C=CC(=O)N1CC[C@H](Nc2cnc3[nH]cc(C(=O)N[C@H](C)COC)c3n2)C[C@@H]1C (single isomer, unassigned) [Example 57] | 241 | > 6 | 4.45 |  |  | 3220
